Laboratory results taken from US20230392153A1, “SUMO Targeting Morpholinos as both Enhancers of Anti-Cancer Effects of Chemotherapeutic Treatments and Preventative Agents Against the Establishment of Chemoresistance” (Board of Regents, The University of Texas System, priority 2022, published 2023).
{OctaGua} = octa-guanidine dendrimer (vivo-morpholino)

System: mature mRNA transcripts derived from the SUMO2 gene, S2V1 and S2V2
Test: qRT-PCR quantification of SUMO2 transcript variants (CNE100 ng) in A549 cells treated with vivo-morpholinos
Format: cell-based, human
Details: 4 μM, 24 hours
Protocol: Made to order vivo-morpholinos are readily available and can be procured from Gene Tools, LLC (Philomath, OR) based on specified embodiments of this disclosure, and reconstituted at a final concentration of 400 μM using RNase & DNase-free milli-Q water. The reconstituted vivo-morpholinos were kept in solution at room temperature. To test the vivo-morpholinos, A549 cells were seeded in 6 well plates at a density of 0.5×10^6 cells per well in a final volume of 3 mL per well. The day after cell seeding, the vivo-morpholinos were diluted down to a final concentration of 4 μM and a final volume of 2 mL using 1× Opti-MEM™ I (Thermo Fisher Scientific, Waltham, MA), the plating media was discarded using vacuum suction, and the diluted vivo-morpholinos were immediately added to the cells (2 mL per well). The cells were maintained in the presence of the vivo-morpholinos at 37° C. and 5% CO 2 for another 24 hours and subsequently the cells were collected and processed for RNA isolation. […] RNA quantification was performed using a NanoDrop™ One s Microvolume UV-Vis Spectrophotometer (Thermo Fisher Scientific). Upon quantification, the purified RNA was divided into 9 μL aliquots and stored at −80° C. until used for qRT-PCR. […]
CNE100 ng were calculated using the Cq values obtained in the qRT-PCR reactions indicated above and calibration curves generated using purified RNA produced in vitro corresponding to each of the segments targeted by the primer sets indicated above.
The primer sets used to quantify each of the SUMO2 mature mRNA transcripts are indicated below. […]
The experiments described above were performed four different times. […] In the three subsequent independent experiments, all samples were analyzed in triplicate and the averages were calculated. […]
Referring to FIG. 5, quantitative analysis of the SUMO2 transcript variants present in A549 cells under normal conditions as well as upon a 24 hour treatment with the vivo-morpholinos S2E3Acc and S2E3Don is presented. […]

S2E3Acc: Vivo-morpholino, SEQ ID NO: 3, 5′ CCTCATTGACAATCCCTGAACGAGA 3′; targets SUMO2 exon 3 at the splicing acceptor site (CCUCAUUGACAAUCCCUGAACGAGA; all phosphorodiamidate morpholino (PMO), 3' {OctaGua}, T or U not given here)
effect on the proportion of S2V1:S2V2 present in the cell: significative changes | decrease in the CNE100 ng of S2V1 (versus normal conditions (untreated)): ~10 fold

S2E3Don: Vivo-morpholino, SEQ ID NO: 4, 5′ GAGATTTTTTTACCTGTGCAGGTGT 3′; targets SUMO2 exon 3 at the splicing donor site (antisense GAGAUUUUUUUACCUGUGCAGGUGU; all phosphorodiamidate morpholino (PMO), 3' {OctaGua}, T or U not given here)
effect on the proportion of S2V1:S2V2 present in the cell: significative changes
